Earlier results on one substance are cited in publication PMC9006653 (The Journal of Biological Chemistry, 2022).

Data set [1] has as its system 10 human tumor cell lines.

Take cycloviolacin O2 [cyO2]: the “fold more active than 11 Möbius cyclotides” value with five cancer cell lines is “over ten-fold”. In addition, the “fold more potent (cytotoxicity) compared to varv A and varv F” value in data set [1] was “over 20 fold”.
